Where a name gives a salt, the structure may show the parent alone.
How the values were obtained:
Type in all cases: in vivo
[1] = tested on: Kochia (Kochia scoparia L.); assay: Greenhouse kochia fresh weight reduction from 2,4-D, dicamba, bentazon as influenced by adjuvants; details: no adjuvant
Protocol: Kochia (Kochia scoparia L.) was grown in plastic cones containing a commercial peat-based greenhouse mixture with 5 plants per cone. All growing conditions and herbicide application procedures were similar as explained in Example 2. Herbicides were applied to kochia at the 4 to 6-leaf stage. Herbicide formulation and rates of herbicides and adjuvants are specified in Table 7. Plants were evaluated for herbicide injury and fresh weight reduction 14 days after herbicide application. Data presented are the means of two experiments with four replicates per experiment.
The adjuvants, Activator 90. RTM and Composition 1, were added into soft and hard water carriers (volume per volume concentrations shown in TABLE 7) with 2,4-D at 220 g ae/ha, dicamba at 75 g ae/ha, or bentazon at 200 g ai/ha to prepare the final aqueous spray mixture applied at 80 L/ha on 4 to 6-leaf kochia. TABLE 7 includes the results of assessment made 2 weeks after treatment.

[2] = tested on: Wheat (Triticum aestivum L.); assay: Greenhouse wheat fresh weight reduction from glyphosate as influenced by adjuvants; details: adjuvant 1%
Protocol: (§1) Wheat (Triticum aestivum L.), velvetleaf (Abutilion theophrasti Medicus), Roundup Ready.RTM soybean (Glycine max (L.) Merr.), and Roundup Ready.RTM corn (Zea mays L.) were grown in plastic cones containing a commercial peat-based greenhouse mixture. Plants were thinned 1 wk after emergence to seven wheat, three velvetlaf, or one corn or soybean per cone and were watered and fertilized as needed for healthy growth. Natural daylight was supplemented for 16 h photoperiod with metal halide lamps with the light intensity of 450 μE/m^2/s. The greenhouse was maintained at 20° C. at night and 25 ±5° C. during the day. Glyphosate with adjuvants was applied to three-leaf wheat and corn, first-pair leaf velvetleaf, and to first-trifoliolate-leaf soybean using a cabinet laboratory sprayer that delivered 80 L/ha through a 8001 flat fan nozzle at 280 kPa generated by compressed air. Distilled water, Fargo tap water (soft), and two well waters from the Devils Lake, ND, area (hard and high sodium content, respectively) were used as spray carriers. Ion concentrations in these waters are described in TABLE 1. Formulation type and rates of glyphosate and adjuvants are specified in each table. In all greenhouse studies, plants were evaluated for herbicide injury and adjuvant efficacy 14 days after herbicide application. Data presented are the means of two experiments with four replicates per experiment.
The adjuvants, ammonium sulfate, Activator 90. RTM, and mixtures thereof, Surfate.RTM, and Composition 1 were added into water [weight (for solids) or volume (for liquids) per volume concentrations shown in TABLE 2] with glyphosate at 100 g ae/ha to prepare the final aqueous spray mixture applied at 80 L/ha on 2 to 3 leaf wheat. Calcium chloride was added to distilled water to get 0, 125, 250, and 500 mg/L calcium cations. TABLE 2 includes the results of assessment made 2 weeks after treatment.
The adjuvants, Activator 90. RTM, MON 0818, Atplus GTM7, Atplus GTM10 and their mixtures with ammonium sulfate, Surfate.RTM, and Composition 1 were added into three water carriers [weight (for solids) or volume (for liquids) per volume concentrations shown in TABLE 3] with glyphosate (100 g ae/ha) to prepare the final aqueous spray mixture applied at 80 L/ha on 2 to 3 leaf wheat. TABLE 3 includes the results of assessment made 2 weeks after treatment.
The adjuvants, ammonium sulfate, Activator 90.RTM, and mixtures thereof, Surfate.RTM, and Composition 1 were added into two water carriers (weight [for solids] or volume [for liquids] per volume concentrations shown in TABLE 4) with three glyphosate formulations, all at 125 g ae/ha, to.prepare the final aqueous spray mixture applied at 80 L/ha on 2 to 3 leaf wheat. TABLE 4 includes the results of assessment made 2 weeks after treatment.
Various iminodipropionate, betaine, imidazoline, and amine oxide amphoteric surfactants applied with ammonium sulfate and adjuvant formulations containing surfactant and ammonium sulfate, including Composition 1 of present invention, were added into hard water carrier [weight (for solids) or volume (for liquids) per volume concentrations shown in TABLE 5] with glyphosate at 125 g ae/ha to prepare the final aqueous spray mixture applied at 80 L/ha on 2 to 3 leaf wheat. TABLE 5 includes the results of assessment made 2 weeks after treatment.

[3] = tested on: velvetleaf (Abutilion theophrasti Medicus); assay: Greenhouse velvetleaf fresh weight reduction from glyphosate as influenced by adjuvants; details: glyphosate (Roundup Ultra Max.RTM) 150 g ae/ha; hard water (Devils Lake, ND, No. 2 - well water); adjuvant 1%
Protocol: as §1, with “experiment. […]” for “experiment.”

## O=C(O)COc1ccc(Cl)cc1Cl [2,4-D-dimethylamine salt, (2,4-dichlorophenoxy)acetic acid]
[1]; 2,4-D-dimethylamine salt 220 g ae/ha, water Devils Lake No. 1 (well)
  percent fresh weigh reduction: 10%
[1]; 2,4-D-dimethylamine salt 220 g ae/ha, water Fargo, ND (tap)
  percent fresh weigh reduction: 20%

## N.N.O=S(=O)(O)O [Ammonium sulfate]
[2]; Roundup Custom.RTM 125 g ae/ha, water Devils Lake No. 1 (well)
  % fresh weight reduction: 23%
[2]; Roundup Custom.RTM 125 g ae/ha, water Fargo (tap)
  % fresh weight reduction: 68%
[2]; Roundup Ultra Max.RTM 125 g ae/ha, water Devils Lake No. 1 (well)
  % fresh weight reduction: 43%
[2]; Roundup Ultra Max.RTM 125 g ae/ha, water Fargo (tap)
  % fresh weight reduction: 54%
[2]; Touchdown.RTM 125 g ae/ha, water Devils Lake No. 1 (well)
  % fresh weight reduction: 24%
[2]; Touchdown.RTM 125 g ae/ha, water Fargo (tap)
  % fresh weight reduction: 71%
[2]; glyphosate 100 g ae/ha (Roundup Ultra Max.RTM), Ca2+ 0 mg/L, 2 weeks after treatment
  % fresh weight reduction: 65%
[2]; glyphosate 100 g ae/ha (Roundup Ultra Max.RTM), Ca2+ 125 mg/L, 2 weeks after treatment
  % fresh weight reduction: 72%
[2]; glyphosate 100 g ae/ha (Roundup Ultra Max.RTM), Ca2+ 250 mg/L, 2 weeks after treatment
  % fresh weight reduction: 73%
[2]; glyphosate 100 g ae/ha (Roundup Ultra Max.RTM), Ca2+ 500 mg/L, 2 weeks after treatment
  % fresh weight reduction: 64%
[3]
  Fresh weight reduction %: 54%

## CC(C)N1C(=O)c2ccccc2NS1(=O)=O [bentazon-sodium salt, 3-(1-methylethyl)-(1H)-2,1,3-benzothiadiazin-4(3H)-one 2,2-dioxide]
[1]; bentazon-sodium salt 200 g ai/ha, water Devils Lake No. 1 (well)
  percent fresh weigh reduction: 5%
[1]; bentazon-sodium salt 200 g ai/ha, water Fargo, ND (tap)
  percent fresh weigh reduction: 20%

## COc1c(Cl)ccc(Cl)c1C(=O)O [dicamba-sodium salt, 3,6-dichloro-2-methoxybenzoic acid]
[1]; dicamba-sodium salt 75 g ae/ha, water Devils Lake No. 1 (well)
  percent fresh weigh reduction: 9%
[1]; dicamba-sodium salt 75 g ae/ha, water Fargo, ND (tap)
  percent fresh weigh reduction: 12%

Source: patent US6645914B1, “Surfactant-ammonium sulfate adjuvant composition for enhancing efficacy of herbicides” (NDSU-Research Foundation, priority 2002, dated 2003)
